In patent publication US12409172B2, “Dosage regimen” (UNION therapeutics A/S, priority 2023, dated 2025):
Where two headings read alike, the source gives them in different places.

What was measured:
[1] = Clinical trial LP0058-1442 in healthy volunteers: PK of modified-release tablet vs immediate-release capsule; type: in vivo, human; details: for AUC(0-t): human, plasma, oral, read-out: AUClast, NCA GM (CV %)
Protocol: The modified-release formulation was studied in a clinical trial (LP0058-1442) and administered in a total of 36 healthy volunteers: 18 in part 1, 9 in part 2, and 9 in part 3. Twenty-seven (27) healthy volunteers received a single administration of 30 mg orismilast, and 9 subjects received multiple administrations over a period of 17 days with an up-titration up to a maximum of 60 mg BID. Part 1 of this study was to evaluate the key PK parameters of the new modified-release formulation compared to the reference capsule formulation with immediate release. Orismilast was rapidly absorbed from both formulations with median tmax values of 3.00 hours post-dose for the immediate-release capsule and 2.52 hours post-dose for the modified-release tablet. The individual tmax ranges were approximately 1 to 6 hours post-dose for the immediate-release capsule and 1 to 4 hours post-dose for the modified-release tablet. […] It can therefore be reasonably assumed that the safety profile resulting from systemic effects can be extrapolated from studies having investigated the immediate-release formulation and in particular, study LP0058-1072, a Phase 2a study including 36 patients with moderate to severe psoriasis vulgaris.
Following administration of modified release tablet as a single oral dose and after multiple doses up to 60 mg, orismilast reached a Cmax around 3 h under fasting state.

[2] = system: patients with moderate to severe psoriasis vulgaris; test: Phase 2a study LP0058-1072 (NCT02888236): orismilast 30 mg BID immediate release vs placebo, 16 weeks; type: in vivo
Protocol: In a phase 2a prospective, randomized, double-blind, placebo-controlled clinical trial (NCT02888236), patients with moderate-to-severe psoriasis were randomized to receive 30 mg twice per day orally in the form of an immediate release (IR) formulation or placebo over 16 weeks.
The modified-release formulation was studied in a clinical trial (LP0058-1442) and administered in a total of 36 healthy volunteers: 18 in part 1, 9 in part 2, and 9 in part 3. Twenty-seven (27) healthy volunteers received a single administration of 30 mg orismilast, and 9 subjects received multiple administrations over a period of 17 days with an up-titration up to a maximum of 60 mg BID. Part 1 of this study was to evaluate the key PK parameters of the new modified-release formulation compared to the reference capsule formulation with immediate release. Orismilast was rapidly absorbed from both formulations with median tmax values of 3.00 hours post-dose for the immediate-release capsule and 2.52 hours post-dose for the modified-release tablet. The individual tmax ranges were approximately 1 to 6 hours post-dose for the immediate-release capsule and 1 to 4 hours post-dose for the modified-release tablet. […]

[3] = system: PDE4B and PDE4D subtype splice variants; details: in vitro; cited from earlier work

O=C(Cc1c(Cl)c[n+]([O-])cc1Cl)c1ccc(OC(F)F)c2c1OC1(CCS(=O)(=O)CC1)O2 [orismilast, 2-(3,5-dichloro-1-oxidopyridin-1-ium-4-yl)-1-[7-(difluoromethoxy)-1′,1′-dioxospiro[1,3-benzodioxole-2,4′-thiane]-4-yl]ethanone]
AUC(0-t) ([1]; 10 mg, 1442 - Part 3 (D1 = 10 mg), N 9): 112 ng·h/mL | AUC(0-t) ([1]; 30 mg, 1442 - Part 1 (MR, 30 mg), N 18): 482 ng·h/mL | AUC(0-t) ([1]; 30 mg, 1442 - Part 2 (Fast, 30 mg), N 9): 480 ng·h/mL | AUC(0-t) ([1]; 60 mg, 1442 - Part 3 (D17 = 60 mg), N 9): 763 ng·h/mL | systemic exposure with high-fat meals ([1]; modified release tablet): significant increase | efficacy in psoriasis on each predefined endpoint [2]: confirmed | patients withdrawn from the trial because of tolerability issues [2]: half | inhibition of PDE4B and PDE4D subtype splice variants [3]: potent inhibitor
